In patent US12528786B2, “Plasma kallikrein inhibitors” (Merck Sharp & Dohme LLC, priority 2020, dated 2026):

biological target: T1, Human plasma kallikrein (Homo sapiens, UniProt P03952); assay: Kallikrein Assay (fluorogenic substrate hydrolysis, AFC release); format: biochemical; conditions: purified Human plasma kallikrein 0.5 nM; substrate Acetyl-K—P—R-AFC 100 mM; 50 mM HEPES pH 7.4
T1 construct: yields a heavy chain (371 amino acids) and a light chain (248 amino acids); purchased Enzyme Research Laboratories
Experimental: The effectiveness of a compound of the present invention as an inhibitor of Kallikrein can be determined using a relevant purified serine protease, and an appropriate synthetic substrate. The rate of hydrolysis of the chromogenic or fluorogenic substrate by the relevant serine protease was measured both in the absence and presence of compounds of the present invention. Assays were conducted at room temperature or at 37° C. […] A decrease in the rate of fluorescence change in the presence of inhibitor is indicative of enzyme inhibition. Such methods are known to one skilled in the art. The results of this assay are expressed as the half-maximal inhibitory concentrations (IC50), or the inhibitory constant, Ki.
Kallikrein determinations were made in 50 mM HEPES buffer at pH 7.4 containing 150 mM NaCl, 5 mM CaCl2), and 0.1% PEG 8000 (polyethylene glycol; Fisher Scientific). Determinations were made using purified Human plasma kallikrein at a final concentration of 0.5 nM (Enzyme Research Laboratories) and the synthetic substrate, Acetyl-K—P—R-AFC (Sigma #C6608) at a concentration of […].
Activity assays were performed by diluting a stock solution of substrate at least tenfold to a final concentration ≤0.2 Km into a solution containing enzyme or enzyme equilibrated with inhibitor. Times required to achieve equilibration between enzyme and inhibitor were determined in control experiments. The reactions were performed under linear progress curve conditions and fluorescence increase measured at 405 Ex/510 Em nm. Values were converted to percent inhibition of the control reaction (after subtracting 100% Inhibition value). IC50 was determined by inflection point from a four parameter logistic curve fit. Ki was calculated using the Cheng Prusoff equation, Ki=IC50/(1+([S]/Km)).

T1 sequence (P03952 391-638 limits assumed): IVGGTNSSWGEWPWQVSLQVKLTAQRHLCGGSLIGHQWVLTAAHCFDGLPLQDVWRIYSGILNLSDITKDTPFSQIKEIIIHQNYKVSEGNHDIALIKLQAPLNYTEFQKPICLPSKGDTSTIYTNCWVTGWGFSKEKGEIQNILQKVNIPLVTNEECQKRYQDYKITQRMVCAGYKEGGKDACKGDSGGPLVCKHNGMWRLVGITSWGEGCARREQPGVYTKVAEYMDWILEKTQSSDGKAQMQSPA
T1 sequence (P03952 20-390 partner limits assumed): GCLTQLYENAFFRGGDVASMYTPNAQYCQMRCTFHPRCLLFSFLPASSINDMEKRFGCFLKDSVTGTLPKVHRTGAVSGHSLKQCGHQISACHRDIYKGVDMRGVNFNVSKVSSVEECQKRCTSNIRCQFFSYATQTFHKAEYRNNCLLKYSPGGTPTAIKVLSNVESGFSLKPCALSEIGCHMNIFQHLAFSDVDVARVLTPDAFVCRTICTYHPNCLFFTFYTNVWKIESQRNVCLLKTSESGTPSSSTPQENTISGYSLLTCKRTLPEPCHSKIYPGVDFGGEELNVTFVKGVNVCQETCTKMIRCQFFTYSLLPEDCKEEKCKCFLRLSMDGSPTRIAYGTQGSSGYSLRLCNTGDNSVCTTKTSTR

IC50 [nM]	SMILES
10.6	N#Cc1ccc(Cl)cc1[C@H]1C[C@@H](NC(=O)c2cnn(Cc3cnc(N4C[C@H]5C[C@H]5C4=O)nc3)c2)C1 [Example 2, N-((cis)-3-(5-chloro-2-cyanophenyl)cyclobutyl)-1-((2-((1R,5S)-2-oxo-3-azabicyclo[3.1.0]hexan-3-yl)pyrimidin-5-yl)methyl)-1H-pyrazole-4-carboxamide]
279	Cc1c(C(C)n2cc(C(=O)NC3CC(c4cccc(Cl)c4)C3O)nn2)nnc(N2C[C@H]3C[C@H]3C2=O)c1C (single isomer, unassigned) [Example 132, N-((1S,2S,3S or 1R,2R,3R))-3-(3-chlorophenyl)-2-hydroxycyclobutyl)-1-((S or R)-1-(4,5-dimethyl-6-((1R,5S)-2-oxo-3-azabicyclo[3.1.0]hexan-3-yl)pyridazin-3-yl)ethyl)-1H-1,2,3-triazole-4-carboxamide]
0.3	Cc1cc(N2C[C@H]3C[C@H]3C2=O)ncc1C(C)n1cc(C(=O)N[C@H]2C[C@@](C)(c3cc(Cl)ccc3C#N)C2)nn1 (single isomer, unassigned) [Example 65, N-((cis)-3-(5-chloro-2-cyanophenyl)-3-methylcyclobutyl)-1-((S or R)-1-(4-methyl-6-((1R,5S)-2-oxo-3-azabicyclo[3.1.0]hexan-3-yl)pyridin-3-yl)ethyl)-1H-1,2,3-triazole-4-carboxamide]
1.1	CC(c1cnc(N2C[C@H]3C[C@H]3C2=O)c(F)c1)n1cc(C(=O)N[C@H]2C[C@@H](c3cc(Cl)ccc3C#N)C2)cn1 (single isomer, unassigned) [Example 21, N-((cis)-3-(5-chloro-2-cyanophenyl)cyclobutyl)-1-((R or S)-1-(5-fluoro-6-((1R,5S)-2-oxo-3-azabicyclo[3.1.0]hexan-3-yl)pyridin-3-yl)ethyl)-1H-pyrazole-4-carboxamide]
25.3	Cc1cc(N2C[C@H]3C[C@H]3C2=O)cnc1C(C)n1cc(C(=O)N[C@H]2C[C@@H](c3cc(Cl)ccc3C#N)C2)cn1 (single isomer, unassigned) [Example 25, N-((cis)-3-(5-chloro-2-cyanophenyl)cyclobutyl)-1-((S or R)-1-(3-methyl-5-((1R,5S)-2-oxo-3-azabicyclo[3.1.0]hexan-3-yl)pyridin-2-yl)ethyl)-1H-pyrazole-4-carboxamide]
3.2	Cc1cc(N2C[C@H]3C[C@H]3C2=O)ncc1[C@H](C)c1cc(C(=O)N[C@H]2C[C@@H](c3cc(Cl)ccc3C#N)C2)n(C)n1 [Example 173, N-((cis)-3-(5-chloro-2-cyanophenyl)cyclobutyl)-1-methyl-3-((S)-1-(4-methyl-6-((1R,5S)-2-oxo-3-azabicyclo[3.1.0]hexan-3-yl)pyridin-3-yl)ethyl)-1H-pyrazole-5-carboxamide]
0.4	COCc1nn(C(C)c2cnc(N3C[C@H]4C[C@H]4C3=O)cc2C)cc1C(=O)N[C@H]1C[C@@H](c2cc(Cl)ccc2C#N)C1 (single isomer, unassigned) [Example 49, N-((cis)-3-(5-chloro-2-cyanophenyl)cyclobutyl)-3-(methoxymethyl)-1-((R or S)-1-(4-methyl-6-((1R,5S)-2-oxo-3-azabicyclo[3.1.0]hexan-3-yl)pyridin-3-yl)ethyl)-1H-pyrazole-4-carboxamide]
0.3	Cc1cc(N2C[C@H]3C[C@H]3C2=O)ncc1C(C)n1cc(C(=O)N[C@H]2C[C@@](C)(c3cc(Cl)ccc3C#N)C2)cn1 (single isomer, unassigned) [Example 9, N-((cis)-3-(5-chloro-2-cyanophenyl)-3-methylcyclobutyl)-1-((R or S)-1-(4-methyl-6-((1R,5S)-2-oxo-3-azabicyclo[3.1.0]hexan-3-yl)pyridin-3-yl)ethyl)-1H-pyrazole-4-carboxamide]
1.1	Cc1c([C@@H](C)n2cc(C(=O)NC3CC(c4cc(Cl)ccc4C#N)C3)nn2)cnc(N2C[C@H]3C[C@H]3C2=O)c1O (single isomer, unassigned) [Example 163]
2.1	Cc1cc(N2C[C@H]3C[C@H]3C2=O)nnc1C(C)n1cc(C(=O)N[C@H]2C[C@@H](c3cc(Cl)ccc3C#N)C2)cn1 (single isomer, unassigned) [Example 47, N-((cis)-3-(5-chloro-2-cyanophenyl)cyclobutyl)-1-((R or S)-1-(4-methyl-6-((1R,5S)-2-oxo-3-azabicyclo[3.1.0]hexan-3-yl)pyridazin-3-yl)ethyl)-1H-pyrazole-4-carboxamide]
62.6	Cc1ccc(C#N)c([C@H]2C[C@@H](NC(=O)c3cn(C(C)c4cnc(N5C[C@H]6C[C@H]6C5=O)cc4C)nn3)C2)c1 (single isomer, unassigned) [Example 66, N-((cis)-3-(2-cyano-5-methylphenyl)cyclobutyl)-1-((R or S)-1-(4-methyl-6-((1R,5S)-2-oxo-3-azabicyclo[3.1.0]hexan-3-yl)pyridin-3-yl)ethyl)-1H-1,2,3-triazole-4-carboxamide]
0.3	Cc1c(C(C)n2cc(C(=O)N[C@H]3C[C@@H](c4cc(Cl)ccc4C#N)C3)cn2)nnc(N2C[C@H]3C[C@H]3C2=O)c1C (single isomer, unassigned) [Example 42, N-((cis)-3-(5-chloro-2-cyanophenyl)cyclobutyl)-1-((S or R)-1-(4,5-dimethyl-6-((1R,5S)-2-oxo-3-azabicyclo[3.1.0]hexan-3-yl)pyridazin-3-yl)ethyl)-1H-pyrazole-4-carboxamide]
4.5	Cc1c(C(C)n2cc(C(=O)NC3CC(c4cccc(Cl)c4)C3O)nn2)cnc(N2C[C@H]3C[C@H]3C2=O)c1F (single isomer, unassigned) [Example 124, N-((1S,2S,3S or 1R,2R,3R)-3-(3-chlorophenyl)-2-hydroxycyclobutyl)-1-((R or S)-1-(5-fluoro-4-methyl-6-((1R,5S)-2-oxo-3-azabicyclo[3.1.0]hexan-3-yl)pyridin-3-yl)ethyl)-1H-1,2,3-triazole-4-carboxamide]
2.7	Cc1ccc(C#N)c([C@H]2C[C@@H](NC(=O)c3cnn(C(C)c4cnc(N5C[C@H]6C[C@H]6C5=O)c(C)c4C)c3)C2)c1 (single isomer, unassigned) [Example 46, N-((cis)-3-(2-cyano-5-methylphenyl)cyclobutyl)-1-((S or R)-1-(4,5-dimethyl-6-((1R,5S)-2-oxo-3-azabicyclo[3.1.0]hexan-3-yl)pyridin-3-yl)ethyl)-1H-pyrazole-4-carboxamide]
0.6	[2H][C@]1(c2cc(Cl)ccc2C#N)C[C@@H](NC(=O)c2cn([C@@H](C)c3cnc(N4C[C@H]5C[C@H]5C4=O)cc3C)nn2)C1 [Example 147, N-((cis)-3-(5-chloro-2-cyanophenyl)cyclobutyl-3-d)-1-((S)-1-(4-methyl-6-((1R,5S)-2-oxo-3-azabicyclo[3.1.0]hexan-3-yl)pyridin-3-yl)ethyl)-1H-1,2,3-triazole-4-carboxamide]
41.3	Cc1c(C(C)n2cc(C(=O)NC3CC(c4cccc(Cl)c4)C3O)nn2)cnc(N2C[C@H]3C[C@H]3C2=O)c1F (single isomer, unassigned) [Example 123, N-((1R,2R,3R or 1S,2S,3S)-3-(3-chlorophenyl)-2-hydroxycyclobutyl)-1-((R or S)-1-(5-fluoro-4-methyl-6-((1R,5S)-2-oxo-3-azabicyclo[3.1.0]hexan-3-yl)pyridin-3-yl)ethyl)-1H-1,2,3-triazole-4-carboxamide]
0.2	Cc1ccc(C#N)c([C@H]2C[C@@H](NC(=O)c3cnn(C(C)c4cnc(N5C[C@H]6C[C@H]6C5=O)c(C)c4C)c3)C2)c1 (single isomer, unassigned) [Example 45, N-((cis)-3-(2-cyano-5-methylphenyl)cyclobutyl)-1-((R or S)-1-(4,5-dimethyl-6-((1R,5S)-2-oxo-3-azabicyclo[3.1.0]hexan-3-yl)pyridin-3-yl)ethyl)-1H-pyrazole-4-carboxamide]
126	[2H]C1(NC(=O)c2cn([C@@H](C)c3cnc(N4C[C@H]5C[C@H]5C4=O)cc3C)nn2)CC(C)(c2cc(Cl)ccc2C#N)C1 (single isomer, unassigned) [Example 145, N-((cis or trans)-3-(5-chloro-2-cyanophenyl)-3-methylcyclobutyl-1-d)-1-((S)-1-(4-methyl-6-((1R,5S)-2-oxo-3-azabicyclo[3.1.0]hexan-3-yl)pyridin-3-yl)ethyl)-1H-1,2,3-triazole-4-carboxamide]
4.4	Cc1c(C(C)n2cc(C(=O)N[C@H]3C[C@@H](c4cc(Cl)ccc4C#N)C3)nn2)cnc(N2C[C@H]3C[C@H]3C2=O)c1F (single isomer, unassigned) [Example 97, N-((cis)-3-(5-chloro-2-cyanophenyl)cyclobutyl)-1-((S or R)-1-(5-fluoro-4-methyl-6-((1R,5S)-2-oxo-3-azabicyclo[3.1.0]hexan-3-yl)pyridin-3-yl)ethyl)-1H-1,2,3-triazole-4-carboxamide]
